Experimental data from US20250195482A1, “METHOD AND COMPOSITION FOR IMPROVING HEALTH OF HAIR FOLLICLES, SCALP OR HAIR OF MAMMALS” (NANJING NUTRABUILDING BIO-TECH CO., LTD., priority 2022, published 2025).

Key:
Format in all cases: cell-based
Propionibacterium acnes = assay: Growth inhibition of Propionibacterium acnes (optical density); conditions: 1000 μM DHB, 530 nm, 48 h shaking at 30° C.; control 2.6
Method: (§1) Growth inhibition of M. globosa, M. restricta, Propionibacterium acnes, Staphylococcus aureus and Staphylococcus epidermidis was tested using 50-ml tubes with 10 ml of mDixon medium. Cultures were inoculated to an optical density (OD) of 0.2, the above microorganisms were loaded into each culture dish, and challenged with test material (control and DHB with different concentrations: 0.001 μM, 0.01 μM, 0.1 μM, 1 μm, 10 μM, 100 μM and 1000 μM). After 48 h of shaking at 30° C., the OD was measured by spectrophotometer and recorded.

Staphylococcus aureus = assay: Growth inhibition of Staphylococcus aureus (optical density); conditions: 1000 μM DHB, 530 nm, 48 h shaking at 30° C.; control 2.1
Method: as §1

M. globosa = assay: Growth inhibition of M. globosa (optical density); conditions: 1000 μM DHB, 600 nm, 48 h shaking at 30° C., mDixon medium; control 4.1
Method: as §1

[1] = system: Staphylococcus epidermidis; assay: Growth inhibition of Staphylococcus epidermidis (optical density); conditions: 1000 μM DHB, 530 nm, 48 h shaking at 30° C.; control 1.8
Method: as §1

M. restricta = assay: Growth inhibition of M. restricta (optical density); conditions: 1000 μM DHB, 600 nm, 48 h shaking at 30° C., mDixon medium; control 6.5
Method: as §1

COc1ccc2c(c1OC)CN1CCc3cc4c(cc3C1=C2)OCO4 [DHB, Dihydroberberine]
optical density of Propionibacterium acnes (Propionibacterium acnes): 0.9 | optical density of Staphylococcus aureus (Staphylococcus aureus): 0.3 | optical density of M. globosa (M. globosa): 0.2 | optical density of Staphylococcus epidermidis [1]: 0.3 | optical density of M. restricta (M. restricta): 1.1
